Among the data in ChEMBL document CHEMBL1221336, “Xanthones with neuraminidase inhibitory activity from the seedcases of Garcinia mangostana” (Bioorg Med Chem, 2010) are Ki, IC50 and inhibition values, retold here.

Assay [1] addresses T1, Sialidase (Clostridium perfringens, UniProt P10481).
T1 sequence (P10481 whole entry): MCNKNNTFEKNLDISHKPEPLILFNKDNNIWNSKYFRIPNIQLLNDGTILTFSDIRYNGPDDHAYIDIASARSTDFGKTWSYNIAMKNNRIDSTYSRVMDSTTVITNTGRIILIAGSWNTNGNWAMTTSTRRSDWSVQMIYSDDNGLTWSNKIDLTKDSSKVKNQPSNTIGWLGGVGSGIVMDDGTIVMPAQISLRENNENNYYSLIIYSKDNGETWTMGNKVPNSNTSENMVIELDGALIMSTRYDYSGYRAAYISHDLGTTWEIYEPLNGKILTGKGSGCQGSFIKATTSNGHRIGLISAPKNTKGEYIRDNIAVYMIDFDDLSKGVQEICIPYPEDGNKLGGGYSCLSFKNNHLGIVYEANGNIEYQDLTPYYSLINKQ
The assay is described as follows: Competitive inhibition of Clostridium perfringens neuraminidase by fluorimetry.

Assay [2] addresses T1, Sialidase. The assay is described as follows: Inhibition of Clostridium perfringens neuraminidase by fluorimetry. The conditions noted are these: for Ki: read-out: Ki(app).
In assay [3] the target is T2, Sialidase (Clostridium perfringens) (UniProt P10481).
T2 sequence (whole entry): T1 sequence (P10481 whole entry)
Nature of the assay: Inhibition of Clostridium perfringens neuraminidase at 1.56 uM by fluorimetry. The conditions noted are these: TDE = time-dependent effect.

In assay [1], `CC(C)=CCc1c(O)c(CC=C(C)C)c2oc3c(O)cccc3c(=O)c2c1O` [8-DEOXYGARTANIN] gave a Ki of 15.5 µM. Further, the IC50 (usually the midpoint of a concentration-inhibition curve) in assay [2] was 29.2 µM.
For the compound `CC(C)=CCc1c(O)c(CC=C(C)C)c2oc3c(O)ccc(O)c3c(=O)c2c1O` [GARTANIN], the Ki in assay [1] turned out to be 3.6 µM. In assay [2], the IC50 stood at 2.9 µM and the Ki amounted to 0.437 µM. For the same compound, the inhibition result in assay [3] is “tde”.
Regarding `COc1c(O)cc2oc3cc(O)c(CC=C(C)C)c(O)c3c(=O)c2c1CC=C(C)C` [MANGOSTIN], in assay [1], the Ki came to 5.8 µM. This compound also came in with an IC50 in assay [2] of 12.2 µM.
On to `CC(C)=CCc1c(O)cc2oc3cc(O)c(O)c(CC=C(C)C)c3c(=O)c2c1O`, for which, in assay [1], the Ki was determined as 0.8 µM. In addition, in assay [2], half-maximal inhibition (IC50) was put at 2.2 µM and the Ki was found to be 7.41 µM. Moreover, in assay [3], the inhibition result was “tde”.
For `O=c1c(O)c(-c2ccc(O)c(O)c2)oc2cc(O)cc(O)c12` [QUERCETIN], the IC50 in assay [2] was determined as 9.8 µM.
`COc1cc2oc3cc(O)c(OC)c(CC=C(C)C)c3c(=O)c2c(O)c1CC=C(C)C` yielded a Ki in assay [1] of 24.9 µM. In assay [2], the IC50 was 60.7 µM.
The matching figures for `COc1c(O)cc2oc3cc4c(c(O)c3c(=O)c2c1CC=C(C)C)C=CC(C)(C)O4` [MANGOSTANIN]: 5.9 µM and 20.1 µM.
As to `COc1c(O)cc2oc3cc(O)c(CC=C(C)C)c(O)c3c(=O)c2c1CCC(C)(C)O` [GARCINONE D], the Ki in assay [1] is 3.3 µM. This compound also came in with an IC50 in assay [2] of 5.7 µM.
The matching figures for `C=C(C)C1Cc2c(cc3oc4cc(O)c(OC)c(CC=C(C)C)c4c(=O)c3c2O)O1` (stereo unspecified) [MANGOSTENONE F]: 7.6 µM and 24.8 µM.
In turn, `CC(C)=CCC/C(C)=C/Cc1c(O)cc2oc3c(O)ccc(O)c3c(=O)c2c1O` [SMEATHXANTHONE A] showed a Ki in assay [1] of 0.15 µM. For the same compound, in assay [2], the half-maximal inhibitory concentration (IC50) was 0.27 µM and the Ki turned out to be 0.0447 µM. The inhibition entry in assay [3] was “tde”.
In assay [1], `COc1c(O)cc2oc3cc4c(c(O)c3c(=O)c2c1CC=C(C)C)CC(O)C(C)(C)O4` (stereo unspecified) [MANGOSTANOL] came in with a Ki of 6.5 µM. This compound had a concentration for half-maximal inhibition (IC50) in assay [2] of 21.5 µM.
The matching figures for `COc1cc2oc3c(O)cccc3c(=O)c2c(O)c1CC=C(C)C` [CUDRAXANTHONE]: 35.2 µM and 65.7 µM.
For the compound `C=C(C)C1Cc2c(c(O)cc3oc4cc(O)c(CC=C(C)C)c(O)c4c(=O)c23)O1` (stereo unspecified) [MANGOSTENONE G], the Ki in assay [1] was found to be 6.8 µM. Moreover, in assay [2], the IC50 was found to be 14.6 µM.
